Data published in patent publication US20220125747A1, “APPLICATION OF ACTIVE INGREDIENT WGX50 IN ZANTHOXYLUM BUNGEANUM EXTRACT” (Shanghai Jiao Tong University, priority 2020, published 2022).

Columns and labels:
Type in all cases: cell-based
keratinocytes = assay: cytotoxicity test based on keratinocytes (MTT); conditions: for Cell vitality Mean: keratinocytes, 24 hours, MTT
Description: Embodiment 1, cytotoxicity test based on keratinocytes. Set up 8 concentration gradients, and set up 3 repeating holes under each concentration. At the same time, solvent control hole, zero adjustment hole (KC2500) and positive control hole (PC, 4% Dimethyl sulfoxide, DMSO) are set up in the experiment. After incubation for 24 hours, the cell viability is detected by MTT method, and the maximum safe concentration of cell administration is screened. The MTT test results are shown in Table 1, in which the GraphPad Prism Program software is used for mapping, and T-test statistical analysis is used among all groups. P-value<0.05 indicates significant difference, and P-value<0.01 indicates extremely significant difference. According to the results of MTT assay, the concentration near the inflection point of cell vitality is selected, and after incubation and culture for 24 hours, the cell morphology is observed under the inverted microscope and photographed (20×), and the morphological detection results are shown in FIG. 2.

melanocytes = assay: cytotoxicity test based on melanocytes (MTT); conditions: for Cell vitality Mean: melanocytes, 24 hours
Description: Embodiment 2, cytotoxicity test based on melanocytes. Set up 8 concentration gradients, and set up 3 repeating holes under each concentration. At the same time, solvent control well, Medium-254 well and positive control well (PC, 8% DMSO) are set up in the experiment. After incubation for 24 hours, the cell viability is detected by MTT method, and the maximum safe concentration of cell administration is screened.

TNFα = assay: anti-inflammatory test of keratinocytes stimulated by UVB, TNFα ELISA; conditions: for TNFα Decreased ratio (compared to NC) / TNFα Average concentration: 24 h; for TNFα Average concentration: ELISA of culture supernatant
Source text: (§1) 3. Anti-inflammatory test based on UVB (ultraviolet radiation b) stimulation of keratinocytes. The blank control (oil-soluble), solvent control (oil-soluble), positive control and sample groups are grouped in the experiment. The detection indexes are TNFα (a pro-inflammatory factors, the NF-κB signaling pathway mediates and initiates the transcription of TNFα (abbreviation for tumor necrosis factor alpha), and after TNFα is synthesized, it binds to its receptor and in turn activates the NF-κB signaling pathway) and IL1-α (a pro-inflammatory factor being non-hydrophobic polypeptide, which is secreted out of cells after cell membrane damage, and then the pro-inflammatory factor binds to its corresponding receptor IL1R and activates NF-κB to induce inflammatory cascade reaction), the detection and analysis are performed according to the operating manual of the TNFα and IL1-α kits.
Embodiment 5, anti-inflammatory test of keratinocytes stimulated by UVB.
(§2) TNFα and IL1-α expression detection process: after 24 hours of incubation, the cell culture supernatant is collected, and the detection and analysis are performed according to the operating instructions of the TNFα and IL1-α kit. When using the T-Test method for statistical analysis, the NC group is compared with the BC group, and the significance is indicated by #, P-value<0.05 is indicated as #, P-value<0.01 is indicated as ##; sample group and positive control group are compared with NC group, and significance is represented by *, P-value<0.05 is represented by *, P-value<0.01 is represented by * *.

IL-1α = assay: anti-inflammatory test of keratinocytes stimulated by UVB, IL-1α ELISA; conditions: for IL-1α Decreased ratio (compared to NC) / IL-1α Average concentration: 24 h; for IL-1α Average concentration: ELISA of culture supernatant
Source text: as §1, §2

TYR = assay: whitening gene test based on melanocytes (qRT-PCR), TYR; conditions: 100 μM, 24 h
Description: (§3) 2. Whitening gene test based on melanocytes. First, the cytotoxicity of melanocytes is tested, and then the experimental design is carried out, and a blank control group and a sample group are set up. The detection indexes are MC1R (melanocortin receptor), MITF (melanogenesis transcription factor), TYR (melanin synthesis and transport related gene) and TYP-1 (tyrosinase related protein). RNA extraction, reverse transcription and fluorescence quantitative PCR are carried out, and the results are calculated by 2^−ΔΔCT method.
(§4) Embodiment 4, whitening gene test based on melanocytes.
(§5) Gene detection process: after 24 hours of incubation, the cells are sampled, and RNA extraction, reverse transcription and fluorescence quantitative PCR detection are carried out according to the kit instructions, and the results are calculated by 2^−ΔΔΔCT method. When statistical analysis is carried out by T-Test method, significance is represented by *, P-value<0.05 is represented by *, and P-value<0.01 is represented by * *.

MITF = assay: whitening gene test based on melanocytes (qRT-PCR), MITF; conditions: 100 μM, 24 h
Description: as §3, §4, §5

CD44 = assay: moisturizing gene test based on keratinocytes (qRT-PCR), CD44; conditions: 5 μM, 24 h
Description: (§6) 1. Moisturizing gene test based on keratinocytes. First, the cytotoxicity of keratinocytes is tested, and then the experimental design is carried out, and a blank control group and a sample group are set up. The detection indexes are AQP3 (aquaporin), CD44 (cell-surface glycoproteins), Filaggrin (protein), claudin-1 (tight junction protein) and HAS2 (hyaluronic acid synthetase). RNA extraction, reverse transcription and fluorescence quantitative PCR are carried out, and the results are calculated by 2^−ΔΔCT method.
(§7) Embodiment 3, moisturizing gene test based on keratinocytes.
as §5, with “after incubation for” for “after”, “hours,” for “hours of incubation,”, “instruction,” for “instructions,”

Filaggrin = assay: moisturizing gene test based on keratinocytes (qRT-PCR), Filaggrin; conditions: 5 μM, 24 h
Description: as §6, §7
as §5, with “after incubation for” for “after”, “hours,” for “hours of incubation,”, “instruction,” for “instructions,”

AQP3 gene = assay: moisturizing gene test based on keratinocytes (qRT-PCR), AQP3; conditions: 5 μM, 24 h
Description: as §6, §7
AQP3 aquaporin in the detection index, located on the cell membrane, has the function of transporting water and plays an important role in the process of skin moisturizing.
as §5, with “after incubation for” for “after”, “hours,” for “hours of incubation,”, “instruction,” for “instructions,”

Claudin-1 = assay: moisturizing gene test based on keratinocytes (qRT-PCR), Claudin-1; conditions: 5 μM, 24 h
Description: as §6, §7
as §5, with “after incubation for” for “after”, “hours,” for “hours of incubation,”, “instruction,” for “instructions,”

TRP-1 = assay: whitening gene test based on melanocytes (qRT-PCR), TRP-1; conditions: 100 μM, 24 h
Description: as §3, §4, §5

HAS2 = assay: moisturizing gene test based on keratinocytes (qRT-PCR), HAS2; conditions: 5 μM, 24 h
Description: as §6, §7
as §5, with “after incubation for” for “after”, “hours,” for “hours of incubation,”, “instruction,” for “instructions,”

MC1R = assay: whitening gene test based on melanocytes (qRT-PCR), MC1R; conditions: 100 μM, 24 h
Description: as §3, §4, §5

[1] = 5 μM, compared with the positive control group (so in the source), P-value<0.01

## C[S+](C)[O-] [DMSO, Dimethyl sulfoxide, reference compound]
keratinocytes; positive control 4% DMSO
  Cell vitality Mean: 30.27%
melanocytes; positive control 8% DMSO
  Cell vitality Mean: 24.23%

## C[C@@H]1C[C@H]2[C@@H]3CCC4=CC(=O)C=C[C@]4(C)[C@@]3(F)[C@@H](O)C[C@]2(C)[C@@]1(O)C(=O)CO [PC, Dexamethasone, reference compound]
TNFα; 100 μg/mL
  TNFα Decreased ratio (compared to NC): 94%
  TNFα Average concentration: 8.34 pg/mL
TNFα; 100 μg/mL, P-value<0.01
  secretion of TNFα compared with the solvent control group: decreases significantly
IL-1α; 100 μg/mL
  IL-1α Decreased ratio (compared to NC): 29%
  IL-1α Average concentration: 93.97 pg/mL
IL-1α; 100 μg/mL, P-Value<0.05
  secretion of IL-1α compared with the solvent control group: decreases significantly

## COc1ccc(CCNC(=O)/C=C/c2ccccc2)cc1OC [WGX50, (E)-N[2-(3,4-dimethoxyphenyl)ethyl]-3-phenylacrylamide]
TYR; P-value<0.01
  expression of TYR gene in melanocytes compared with the blank control group: significantly inhibits
TYR; qRT-PCR
  TYR Increased ratio (compared to BC): 51.8%
  TYR gene expression Mean (2^−ΔΔCT): 0.488
MITF; P-value<0.01
  expression of MITF gene in melanocytes compared with the blank control group: significantly inhibits
MITF; qRT-PCR
  MITF Increased ratio (compared to BC): 57.8%
  MITF gene expression Mean (2^−ΔΔCT): 0.432
TNFα; 5 μM
  TNFα Decreased ratio (compared to NC): 85%
  TNFα Average concentration: 18.97 pg/mL
TNFα; [1]
  secretion of TNFα: decreases significantly
keratinocytes; in the concentration range of 5 μM, MTT and morphological results
  cytotoxicity to keratinocytes: no cytotoxicity
keratinocytes; 0.5 μM
  Cell vitality Mean: 106.81%
keratinocytes; 1 μM
  Cell vitality Mean: 93.72%
keratinocytes; 2.5 μM
  Cell vitality Mean: 93.60%
keratinocytes; 5 μM
  Cell vitality Mean: 93.01%
keratinocytes; 10 μM
  Cell vitality Mean: 84.00%
keratinocytes; 25 μM
  Cell vitality Mean: 66.77%
keratinocytes; 50 μM
  Cell vitality Mean: 57.35%
keratinocytes; 100 μM
  Cell vitality Mean: 50.36%
CD44
  CD44 Increased ratio (compared to BC): −21.90%
  CD44 gene expression Mean (2^−ΔΔCT): 0.785
Filaggrin
  Filaggrin Increased ratio (compared to BC): 7.20%
  Filaggrin gene expression Mean (2^−ΔΔCT): 1.101
AQP3 gene; P-value<0.01
  expression of AQP3 gene in keratinocytes compared with the blank control group: significantly promotes
AQP3 gene; qRT-PCR
  AQP3 Increased ratio (compared to BC): 34.20%
  AQP3 gene expression Mean (2^−ΔΔCT): 1.345
Claudin-1
  Claudin-1 Increased ratio (compared to BC): 17.50%
  Claudin-1 gene expression Mean (2^−ΔΔCT): 1.182
melanocytes; in the concentration range of 100 μM
  cytotoxicity to melanocytes: no cytotoxicity
melanocytes; 0.5 μM
  Cell vitality Mean: 105.78%
melanocytes; 1 μM
  Cell vitality Mean: 99.02%
melanocytes; 2.5 μM
  Cell vitality Mean: 96.68%
melanocytes; 5 μM
  Cell vitality Mean: 95.56%
melanocytes; 10 μM
  Cell vitality Mean: 99.51%
melanocytes; 25 μM
  Cell vitality Mean: 99.51%
melanocytes; 50 μM
  Cell vitality Mean: 108.86%
melanocytes; 100 μM
  Cell vitality Mean: 96.62%
TRP-1; P-value<0.01
  expression of TYP-1 gene in melanocytes compared with the blank control group: significantly inhibits
TRP-1; qRT-PCR
  TRP-1 Increased ratio (compared to BC): 70.10%
  TRP-1 gene expression Mean (2^−ΔΔCT): 0.304
HAS2
  HAS2 Increased ratio (compared to BC): −14.70%
  HAS2 gene expression Mean (2^−ΔΔCT): 0.898
MC1R; P-value<0.01
  expression of MC1R gene in melanocytes compared with the blank control group: significantly inhibits
MC1R; qRT-PCR
  MC1R Increased ratio (compared to BC): 47.2%
  MC1R gene expression Mean (2^−ΔΔCT): 0.528
IL-1α; 5 μM
  IL-1α Decreased ratio (compared to NC): 67%
  IL-1α Average concentration: 43.65 pg/mL
IL-1α; [1]
  secretion of IL-1α: decreases significantly
